Columns and labels:
[1] = molecular target: CypD (30-207 aa, human recombinant) (Homo sapiens, UniProt P30405); assay: Cyclophilin D biochemical FP assay; format: binding; settings: for Biochemical CypD FP assay LE: ligand binding efficiency based on biochemical FP IC50s
[2] = molecular target: Recombinant human Cyclophilin D protein (amino acids 44-207, K175I) (Homo sapiens, UniProt P30405, K175I); assay: CypD SPR binding assay; settings: for CypD LE (ligand binding efficiency based on the SPR KDs): fragment hits; for SPR binding CypD LE: ligand binding efficiency based on SPR KDs
Recombinant human Cyclophilin D protein (amino acids 44-207, K175I), sequence (P30405 44-207 K175I): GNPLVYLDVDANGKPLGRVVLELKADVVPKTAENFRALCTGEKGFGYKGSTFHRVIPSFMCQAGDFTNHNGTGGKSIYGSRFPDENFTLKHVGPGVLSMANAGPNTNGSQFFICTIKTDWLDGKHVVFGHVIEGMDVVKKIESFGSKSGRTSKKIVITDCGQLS

CypD (30-207 aa, human recombinant), sequence (P30405 30-207): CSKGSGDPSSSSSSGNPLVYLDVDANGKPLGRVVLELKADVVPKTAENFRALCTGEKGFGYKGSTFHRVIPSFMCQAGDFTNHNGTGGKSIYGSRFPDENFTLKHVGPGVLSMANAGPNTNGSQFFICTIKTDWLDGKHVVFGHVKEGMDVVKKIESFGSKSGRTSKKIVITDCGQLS

| Compound | IC50 [1] | SPR binding CypD LE [2] | also measured |
| --- | --- | --- | --- |
| CSc1ccccc1[C@H]1CCCN1C(=O)CNC(=O)NCc1ccc(N)cc1 [compound 2, reference compound] | 0.75 µM | – | Kd [2]: 0.23 µM |
| O[C@@H]1CO[C@@H]2C[C@H]1Nc1ccc(F)cc12 [compound 3] | – | – | CypD LE (ligand binding efficiency based on the SPR KDs) [2]: 0.2 |
| CCN1Cc2cc3c(cc2NCCC1=O)OCO3 [compound 4] | – | – | CypD LE (ligand binding efficiency based on the SPR KDs) [2]: 0.16 |
| CCn1nnc(NC(=O)c2ccccc2)n1 [compound 6] | – | – | CypD LE (ligand binding efficiency based on the SPR KDs) [2]: 0.21 |
| O=C(NCc1ccccn1)C(=O)NC1CCCC1 [compound 8] | – | – | CypD LE (ligand binding efficiency based on the SPR KDs) [2]: 0.22 |
| CSc1ccccc1[C@H]1CCCN1C(=O)CN(C)C(=O)NCc1ccc2c(c1)[C@H]1C[C@@H](N2)[C@H](O)CO1 [compound 18] | 10 µM | – | – |
| CSc1ccccc1[C@H]1CCCN1C(=O)CNC(=O)CCc1ccc2c(c1)[C@@H]1C[C@H](N2)[C@H](O)CO1 [compound 19] | 54 µM | – | – |
| CCN1Cc2cc(CNC(=O)NCC(=O)N3CCC[C@@H]3c3ccccc3SC)ccc2NCCC1=O [compound 20] | 0.19 µM | 0.25 | – |
| CCN1Cc2cc(NC(=O)NCC(=O)N3CCC[C@@H]3c3ccccc3SC)ccc2NCCC1=O [compound 21] | > 100 µM | 0.13 | – |
| CCN1Cc2cc(CCC(=O)NCC(=O)N3CCC[C@@H]3c3ccccc3SC)ccc2NCCC1=O [compound 22] | 4.1 µM | 0.21 | Biochemical CypD FP assay LE [1]: 0.21 |
| CCN1Cc2cc(CCC(=O)NCCC(=O)N3CCC[C@@H]3c3ccccc3SC)ccc2NCCC1=O [compound 23] | > 100 µM | 0.12 | – |
| O=C(NCc1ccc2c(c1)[C@H]1C[C@@H](N2)[C@H](O)CO1)C(=O)N1CCCC1 [compound 29] | > 100 µM | – | Kd [2]: > 1500 µM |
| O=C(NCc1ccc2c(c1)[C@@H]1C[C@H](N2)[C@H](O)CO1)C(=O)N1CCCC1 [compound 30] | – | 0.19 | Biochemical CypD FP assay LE [1]: 0.16 |
| O=C(NCc1ccc2c(c1)[C@@H]1C[C@H](N2)[C@H](O)CO1)C(=O)NC1CCCC1 [compound 30] | 870 µM | – | Kd [2]: 217 µM |
| CSc1ccccc1[C@H]1CCCN1C(=O)C(=O)NCc1ccc2c(c1)[C@H]1C[C@@H](N2)[C@H](O)CO1 [compound 31] | > 100 µM | 0.16 | – |
| CSc1ccccc1[C@@H]1CCCN1C(=O)C(=O)NCc1ccc2c(c1)[C@H]1C[C@@H](N2)[C@H](O)CO1 [compound 32] | > 30 µM | – | – |
| CCN1Cc2cc(CNC(=O)CN3C(=O)[C@@H]4[C@H]5CC[C@H](C5)[C@@H]4C3=O)ccc2NCCC1=O [compound 34] | 80 µM | – | Biochemical CypD FP assay LE [1]: 0.18; Kd [2]: 51 µM |
| CCN1Cc2cc(NC(=O)CN3C(=O)C4C(C3=O)[C@H]3CC[C@@H]4C3)ccc2NCCC1=O (stereo partly drawn) [compound 35] | > 1000 µM | – | – |
| Nc1ccc(CCNC(=O)CN2C(=O)C3C4CCC(C4)C3C2=O)cc1 (stereo not drawn) [compound 37] | 490 µM | – | Biochemical CypD FP assay LE [1]: 0.18 |
| O=C(CN1C(=O)C2C3CCC(C3)C2C1=O)NCc1ccc2c(c1)CCCN2 (stereo not drawn) [compound 38] | – | – | potency improvement compared with 36 [1]: 2 fold |
| O=C(CN1C(=O)[C@@H]2[C@@H]3CC[C@@H](C3)[C@@H]2C1=O)NCc1ccc2c(c1)[C@H]1C[C@@H](N2)[C@H](O)CO1 [compound 39] | 1.7 µM | 0.26 | Biochemical CypD FP assay LE [1]: 0.26 |
| O=C(CN1C(=O)[C@@H]2[C@H]3CC[C@H](C3)[C@@H]2C1=O)NCc1ccc2c(c1)[C@H]1C[C@@H](N2)[C@H](O)CO1 [compound 40, 2-(exo-3,5-Dioxo-4-aza-tricyclo[5.2.1.02,6]dec-4-yl)-N-((1R,9R,10S)-10-hydroxy-12-oxa-8-aza-tricyclo[7.3.1.02,7]trideca-2(7),3,5-trien-4-ylmethyl)-acetamide] | 0.735 µM | 0.25 | Biochemical CypD FP assay LE [1]: 0.27 |
